Data: the supplement of paper PMC10290057
Structures can show the parent of a compound that is named as a salt.

How the values were obtained:
HCT116 [1] = experiment: AC50 cell viability (CellTiter-Glo); higher = less potent; conditions: 48 h
HCT116 [2] = experiment: efficacy (fitted maximal change in viability relative to DMSO control); higher = less cytotoxic (negative = loss of viability); conditions: 48 h
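For AC50 cell viability (CellTiter-Glo) in this document: HCT116 colorectal carcinoma cells screened at five concentrations per compound, luminescent viability scaled between DMSO wells and empty wells on each plate, curves fitted per compound.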
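For efficacy (fitted maximal change in viability relative to DMSO control) in this document: Luminescence-based viability readout, five doses per compound, normalized against on-plate DMSO and empty-well controls, followed by dose-response curve fitting for every drug.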

| SMILES | AC50 cell viability (HCT116 [1]) | efficacy (HCT116 [2]) |
| --- | --- | --- |
| COC(=O)C1C2CC3c4[nH]c5cc(OC)ccc5c4CCN3CC2CC(OC(=O)c2cc(OC)c(OC)c(OC)c2)C1OC (stereo not drawn) [Reserpine] | 20.9 µM | -68.3% |
| CN(C)Cc1ccc([S+](=O)([O-])n2ccc(/C=C/C(=O)NO)c2)cc1 [Resminostat] | 2.35 µM | -103% |
| Oc1ccc(/C=C/c2cc(O)cc(O)c2)cc1 [Resveratrol] | 20.9 µM | -49.1% |
| C=CCNc1c(O)cc2c(O)c1C[C@@H](C)C[C@H](OC)[C@H](O)[C@@H](C)/C=C(/C)[C@H](OC(N)=O)[C@@H](OC)/C=C\C=C(\C)C(=O)N2 [Retaspimycin Hydrochloride] | 0.372 µM | -66.4% |
| c1nc2c(NC3CCCCC3)nc(Nc3ccc(N4CCOCC4)cc3)nc2[nH]1 [Reversine] | 6.61 µM | -114% |
| CO[C@H]1C[C@@H]2CC[C@@H](C)[C@@](O)(O2)C(=O)C(=O)N2CCCC[C@H]2C(=O)O[C@H]([C@H](C)C[C@@H]2CC[C@@H](OP(C)(C)=O)[C@H](OC)C2)CC(=O)[C@H](C)/C=C(\C)[C@@H](O)[C@@H](OC)C(=O)[C@H](C)C[C@H](C)/C=C/C=C/C=C/1C [Ridaforolimus] | 20.9 µM | -48.8% |
| CO[C@H]1/C=C/O[C@@]2(C)Oc3c(C)c(O)c4c(c3C2=O)C2=NC3(CCN(CC(C)C)CC3)NC2=C(NC(=O)/C(C)=C/C=C/[C@H](C)[C@H](O)[C@@H](C)[C@@H](O)[C@@H](C)[C@H](OC(C)=O)[C@@H]1C)C4=O [Rifabutin] | 23.5 µM | -60% |
| Nc1nc2ccc(OC(F)(F)F)cc2s1 [Riluzole] | 10.5 µM | -59.1% |
| Cc1c(C(=O)NN2CCCCC2)nn(-c2ccc(Cl)cc2Cl)c1-c1ccc(Cl)cc1 [Rimonabant] | 23.5 µM | -93.4% |
| CN1CCC(C1CO)C2=C(O)C=C(O)C3=C2O\C(=C/C3=O)C4=CC=CC=C4Cl (stereo not drawn) [Riviciclib (P276-00)] | 0.372 µM | -73.4% |
| C[S+](=O)([O-])c1ccc([C@@H](CC2CCCC2)C(=O)Nc2nccs2)cc1 [Ro-28-1675] | 23.5 µM | -67.1% |
| C=CC(=O)Nc1cccc(Nc2nc(Nc3ccc(N4CCN(C(C)=O)CC4)cc3OC)ncc2C(F)(F)F)c1 [Rociletinib] | 8.33 µM | -112% |
| C[C@@H](OC[C@@]1(c2ccccc2)CC[C@]2(CCC(=O)N2)CN1)c1cc(C(F)(F)F)cc(C(F)(F)F)c1 [Rolapitant] | 13.2 µM | -111% |
| C/C=C1\NC(=O)[C@H]2CSSCC/C=C\[C@H](CC(=O)N[C@H](C(C)C)C(=O)N2)OC(=O)[C@H](C(C)C)NC1=O [Romidepsin] | 0.00742 µM | -94.8% |
| C[C@@H](O)[C@@H](C)Oc1nc(Nc2ccc([S+](=N)([O-])C3CC3)cc2)ncc1C(F)(F)F (stereo partly drawn) [Roniciclib] | 18.6 µM | -94% |
| [O-]C(=O)C1=C(C(=C(Cl)C(=C1Cl)Cl)Cl)C/2=C/3\C=C(I)/C(=O)/C(=C3OC4=C2C=C(I)C(=C4I)[O-])I [Rose Bengal disodium] | 16.6 µM | -47% |
| C=C(C)[C@H]1Cc2c(ccc3c2O[C@@H]2COc4cc(OC)c(OC)cc4[C@@H]2C3=O)O1 [Rotenone] | 0.525 µM | -64.9% |
| CN(C)C[C@@H]1CC[N]2C=C(C3=C2C=CC=C3)C/4=C(/C(=O)NC4=O)C5=C[N](CCO1)C6=C5C=CC=C6 [Ruboxistaurin mesylate] | 8.33 µM | -102% |
| CNCc1ccc(-c2[nH]c3cc(F)cc4c3c2CCNC4=O)cc1 [Rucaparib] | 18.6 µM | -101% |
| N#CC[C@H](C1CCCC1)n1cc(-c2ncnc3[nH]ccc23)cn1 [Ruxolitinib] | 11.8 µM | -67.4% |
| CNC1CCC(N(Cc2cccc(-c3ccncc3)c2)C(=O)c2sc3ccccc3c2Cl)CC1 (stereo not drawn) [SAG] | 16.6 µM | -98.5% |
| CCOc1cc(C(=O)Nc2ccc(Cl)c(-c3nc4ccccc4[nH]3)c2)cc(OCC)c1OCC [SANT-2] | 2.63 µM | -37.4% |
| CN1C/C=C/CCOc2cccc(c2)-c2ccnc(n2)Nc2cccc(c2)C1 [SB-1317] | 0.059 µM | -70.2% |
| O=C1\C=C(OC2=C1SC=C2C3=CC=C4OCCOC4=C3)\N5CCOCC5 [SF-2523] | 3.72 µM | -69.9% |
| CC(C)N(CCCNC(=O)Nc1ccc(C(C)(C)C)cc1)C[C@H]1O[C@@H](n2cc(Br)c3c(N)ncnc32)[C@H](O)[C@@H]1O [SGC-0946] | 20.9 µM | -95.9% |
| CN1CCC(CNc2ccc3ncc(-c4cccc(OC(F)(F)F)c4)n3n2)CC1 [SGI-1776] | 6.61 µM | -102% |
| Cc1c[nH]c2nc(Nc3ccc(N4CCN(C)CC4)c(F)c3)nc(-c3cccc(CC#N)c3)c12 [SGI-7079] | 0.525 µM | -83.9% |

| SMILES | AC50 cell viability (HCT116 [1]) | efficacy (HCT116 [2]) |
| --- | --- | --- |
| N#C/C(=C(/N)Sc1ccc(N)cc1)c1ccccc1C(F)(F)F [SL-327] | 13.2 µM | -80.4% |
| CN[C@@H](C)C(=O)N[C@H]1CCCC[C@H]2CC[C@@H](C(=O)N[C@@H](c3ccccc3)c3cn(CCCCc4ccc(CCCCn5cc([C@@H](NC(=O)[C@@H]6CC[C@@H]7CCCC[C@H](NC(=O)[C@H](C)NC)C(=O)N76)c6ccccc6)nn5)cc4)nn3)N2C1=O [SM-164] | 23.5 µM | -89.2% |
| CCC1=C2CN3C(=O)\C4=C(/C=C3/C2=NC5=CC=C(O)C=C15)[C@@](O)(CC)C(=O)OC4 [SN-38] | 0.0661 µM | -79.2% |
| O=C(Nc1cccc(Cl)c1)Nc1ncc(CCNc2ncnc3ccsc23)s1 [SNS-314] | 18.6 µM | -91.8% |
| C/C(=N\NC(=O)c1cccc([S+](=O)([O-])N2CCOCC2)c1)c1cc(Cl)ccc1O [SP2509] | 1.86 µM | -69.5% |
| C/C(NNC(=O)c1cccc([S+](=O)([O-])N2CCOCC2)c1)=C1\C=C(Cl)C=CC1=O [SP-2509] | 2.63 µM | -72% |
| COC1=CC=CC2=C1C(=NC(=N2)C3=CC=CS3)NN4C(=O)\C=C(C)/C4=O [SPC-839] | 0.525 µM | -91.1% |
| OC(c1ccc(-c2ccc(CN3CCN(Cc4ccncc4)CC3)cc2)c(F)c1)(C(F)(F)F)C(F)(F)F [SR-2211] | 10.5 µM | -44.3% |
| Cc1ccc(-c2ncn(-c3ccc(Nc4nccc(-c5cccc(N6CCOCC6)c5)n4)cc3)n2)cn1 [SR-3306] | 1.48 µM | -85.8% |
| CCCCCNC(=O)N1CCC(CN(Cc2ccc(Cl)cc2)Cc2ccc([N+](=O)[O-])s2)C1 (stereo not drawn) [SR-9011] | 20.9 µM | -71% |
| O=C(Nc1ccccc1-c1cn2c(CN3CCNCC3)csc2n1)c1cnc2ccccc2n1 [SRT-1720] | 7.42 µM | -83.6% |
| NC(=O)[C@H]1CCS[C@@H]2C[C@]3(CCCN3C(=O)Cc3ccc(NC(=O)COc4ccc(Cl)cc4Cl)cc3)C(=O)N12 [ST-2825] | 10.5 µM | -68.6% |
| O=C(Nc1nnc(-c2ccco2)o1)c1cc(-c2ccccc2)nc2ccccc12 [STX-0119] | 14.8 µM | -69.9% |
| CN(C)[S+](=O)([O-])c1ccc2c(c1)C(=Cc1cc3c([nH]1)CCCC3)C(=O)N2 [SU-6656] | 0.118 µM | -34.2% |
| Cc1[nH]c(/C=C2\C(=O)Nc3ccc([S+](=O)([O-])N(C)c4cccc(Cl)c4)cc32)c(C)c1C(=O)N1CCN(C)CC1 [SU-MI-2] | 14.8 µM | -113% |
| CCC(C1CCC(C)C(O1)C(C)C(O)C(C)C(=O)C(CC)C2OC\3(O[C@]4(CC[C@@](C)(O4)C5CC[C@@](O)(CC)C(C)O5)C(O)\C=C3)C(C)CC2C)C([O-])=O (stereo partly drawn) [Salinomycin] | 13.2 µM | -98.3% |
| CN1CCN(CCOc2cc(OC3CCOCC3)c3c(Nc4c(Cl)ccc5c4OCO5)ncnc3c2)CC1 [Saracatinib] | 18.6 µM | -101% |
| [O-][n+]1cccc(-c2nc3c(Cl)cccc3cc2[C@@H](Nc2ncnc3cccnc23)C(F)(F)F)c1 [Seletalisib] | 18.6 µM | -49.3% |
| CC[C@H](CO)Nc1nc(NCc2ccccc2)c2ncn(C(C)C)c2n1 [Seliciclib] | 10.5 µM | -84.6% |
| O=C(/C=C\n1cnc(-c2cc(C(F)(F)F)cc(C(F)(F)F)c2)n1)NNc1cnccn1 [Selinexor] | 0.372 µM | -93.1% |
| Cc1cc(F)c(C(=O)Nc2cccc(-c3nncn3C(C)C)n2)cc1-n1cnc(C2CC2)c1 [Selonsertib] | 16.6 µM | -73.8% |
| Cn1cnc2c(F)c(Nc3ccc(Br)cc3Cl)c(C(=O)NOCCO)cc21 [Selumetinib] | 0.525 µM | -77% |
| CN1CCN(C(=O)c2ccc3cc(CCNc4ncnc5ccc(C#N)cc45)ccc3c2)CC1 [Senexin-B] | 13.2 µM | -72.9% |
| C=C1/C(=C/C=C2\CCCC3(C)[C@@H]([C@H](C)/C=C/C=C/C(O)(CC)CC)CC[C@@H]23)C[C@@H](O)C[C@@H]1O (stereo partly drawn) [Seocalcitol] | 18.6 µM | -31.2% |
| COCCn1c2c([n+](Cc3cnccn3)c1C)C(=O)c1ccccc1C2=O [Sepantronium bromide] | 0.00833 µM | -93.8% |
| Nc1nc2cc(-c3ccc4ncc(C(=O)N5CCOCC5)n4c3)ccc2o1 [Serabelisib] | 4.68 µM | -53.2% |
| c1ccc2c(CCNc3ccc(Nc4ccncc4)cc3)c[nH]c2c1 [Serdemetan] | 5.9 µM | -89.6% |
